Patent US20170114021A1, “HALOGEN-SUBSTITUTED COMPOUNDS” (priority 2014, published 2017)

Legend:
Ctenocephalides felis [1] = experiment: Ctenocephalides felis in vitro contact test; assay type: in vivo; conditions: application rate 5 μg/cm^2; adult cat fleas; after 48 h
Procedure: Ctenocephalides felis—In Vitro Contact Test
(§1) For the coating of the test tubes, 9 mg of active compound are first dissolved in 1 ml of acetone p.a. and then diluted to the desired concentration with acetone p.a. 250 μl of the solution are distributed homogeneously on the inner walls and the base of a 25 ml test tube by turning and rocking on an orbital shaker (rocking rotation at 30 rpm for 2 h). With 900 ppm active compound solution and internal surface 44.7 cm^2, given homogeneous distribution, an area-based dose of 5 μg/cm^2 is achieved.
After the solvent has evaporated off, the tubes are populated with 5-10 adult cat fleas (Ctenocephalides felis), sealed with a perforated plastic lid and incubated in a horizontal position at room temperature and ambient humidity. After 48 h, efficacy is determined. To this end, the test tubes are stood upright and the fleas are knocked to the base of the tube. Fleas which remain motionless at the base or move in an uncoordinated manner are considered to be dead or moribund.
100% efficacy means that all the fleas were dead or moribund. 0% efficacy means that no fleas were harmed.

Rhipicephalus sanguineus = Rhipicephalus sanguineus in vitro contact test; assay type: in vivo; conditions: application rate 5 μg/cm^2; adult dog ticks; after 48 h
Procedure: Rhipicephalus sanguineus—In Vitro Contact Tests
as §1
After the solvent has evaporated off, the tubes are populated with 5-10 adult dog ticks (Rhipicephalus sanguineus), sealed with a perforated plastic lid and incubated in a horizontal position in the dark at room temperature and ambient humidity. After 48 h, efficacy is determined. To this end, the ticks are knocked to the floor of the tube and incubated on a hotplate at 45-50° C. for not more than 5 min. Ticks which remain motionless on the floor or move in such an uncoordinated manner that they are unable to deliberately avoid the heat by climbing upwards are considered to be dead or moribund.
An efficacy of 100% means that all the ticks were dead or moribund. 0% efficacy means that none of the ticks had been harmed.

Amblyomma hebraeum = experiment: Amblyomma hebaraeum test (AMBYHE), tick nymph immersion; assay type: in vivo; conditions: application rate 20 ppm; tick nymphs; after 42 days
Procedure: Amblyomma hebaraeum Test (AMBYHE) Solvent: dimethyl sulphoxide
(§2) To produce a suitable preparation of active compound, 10 mg of active compound are mixed with 0.5 ml of dimethyl sulphoxide, and the concentrate is diluted with water to the desired concentration.
Tick nymphs (Amblyomma hebraeum) are placed into perforated plastic beakers and immersed in the desired concentration for one minute. The ticks are transferred on filter paper into a Petri dish and stored in a climate-controlled cabinet.
After 42 days, the kill in % is determined. 100% means that all of the ticks have been killed; 0% means that none of the ticks have been killed.

[2] = tested on: Boophilus microplus Parkhurst strain, SP-resistant; experiment: Boophilus microplus dip test (BOOPMI Dip); assay type: in vivo; conditions: application rate 20 ppm; engorged adult female cattle ticks; after 7 days
Procedure: Boophilus microplus—Dip Test (BOOPMI Dip) Test animals: cattle ticks (Boophilus microplus) Parkhurst strain, SP-resistant Solvent: dimethyl sulphoxide
10 mg of active compound are dissolved in 0.5 ml of dimethyl sulphoxide. To produce a suitable formulation, the active compound solution is diluted with water to the concentration desired in each case.
This active compound preparation is pipetted into tubes. 8-10 engorged adult female cattle ticks (Boophilus microplus) are transferred into a further tube with holes. The tube is immersed into the active compound preparation, and all the ticks are completely wetted. After the liquid has run out, the ticks are transferred on filter discs into plastic dishes and stored in a climate-controlled room.
(§3) Efficacy is assessed after 7 days by laying of fertile eggs. Eggs which are not visibly fertile are stored in a climate-controlled cabinet until the larvae hatch after about 42 days. An efficacy of 100% means that none of the ticks has laid any fertile eggs; 0% means that all the eggs are fertile.

Boophilus microplus = Boophilus microplus injection test (BOOPMI Inj); assay type: in vivo; conditions: application rate 20 μg/animal; injection into abdomen
Procedure: Boophilus microplus—Injection Test (BOOPMI Inj) Solvent: dimethyl sulphoxide
To produce a suitable preparation of active compound, 10 mg of active compound are mixed with 0.5 ml of solvent and the concentrate is diluted with solvent to the desired concentration.
1 μl of the active compound solution is injected into the abdomen of 5 engorged adult female cattle ticks (Boophilus microplus). The animals are transferred into dishes and kept in a climate-controlled room.
as §3, with “The activity” for “Efficacy”, “the desired time” for “7 days”

Ctenocephalides felis [3] = experiment: Ctenocephalides felis oral test (CTECFE); assay type: in vivo; conditions: application rate 100 ppm in citrated cattle blood; after 2 days
Procedure: Ctenocephalides felis—Oral Test (CTECFE) Solvent: dimethyl sulphoxide
To produce a suitable preparation of active compound, 10 mg of active compound are mixed with 0.5 ml of dimethyl sulphoxide. Dilution with citrated cattle blood gives the desired concentration.
About 20 unfed adult cat fleas (Ctenocephalides felis) are placed into a chamber which is closed at the top and bottom with gauze. A metal cylinder whose bottom end is closed with parafilm is placed onto the chamber. The cylinder contains the blood/active compound preparation, which can be imbibed by the fleas through the parafilm membrane.
After 2 days, the kill in % is determined. 100% means that all of the fleas have been killed; 0% means that none of the fleas have been killed.

Lucilia cuprina = Lucilia cuprina test (LUCICU); assay type: in vivo; conditions: application rate 100 ppm; L1 larvae; after 2 days
Procedure: Lucilia cuprina-Test (LUCICU) Solvent: dimethyl sulphoxide
as §2
About 20 L1 larvae of the Australian sheep blowfly (Lucilia cuprina) are transferred into a test vessel containing minced horsemeat and the active compound preparation of the desired concentration.
After 2 days, the kill in % is determined. 100% means that all the larvae have been killed; 0% means that no larvae have been killed.

Musca domestica = Musca domestica test (MUSCDO); assay type: in vivo; conditions: application rate 100 ppm; adult houseflies; after 2 days
Procedure: Musca domestica-Test (MUSCDO) Solvent: dimethyl sulphoxide
as §2
Vessels containing a sponge treated with sugar solution and the active compound preparation of the desired concentration are populated with 10 adult houseflies (Musca domestica).
After 2 days, the kill in % is determined. 100% means that all of the flies have been killed; 0% means that none of the flies have been killed.

Phaedon cochleariae = Phaedon cochleariae spray test (PHAECO); assay type: in vivo; conditions: application rate 100 g/ha; Chinese cabbage leaf discs; after 7 days
Procedure: Phaedon cochleariae—Spray Test (PHAECO) Solvent: 78.0 parts by weight of acetone • • 1.5 parts by weight of dimethylformamide Emulsifier: alkylaryl polyglycol ether
(§4) To produce a suitable preparation of active compound, 1 part by weight of active compound is dissolved using the specified parts by weight of solvent and made up with water containing an emulsifier concentration of 1000 ppm until the desired concentration is attained. To produce further test concentrations, the preparation is diluted with emulsifier-containing water.
After 7 days, efficacy in % is determined. 100% means that all the beetle larvae have been killed; 0% means that no beetle larvae have been killed.

Spodoptera frugiperda = Spodoptera frugiperda spray test (SPODFR); assay type: in vivo; conditions: application rate 100 g/ha; maize leaf discs; after 7 days
Procedure: Spodoptera frugiperda—Spray Test (SPODFR)
Solvent: 78.0 parts by weight of acetone • • 1.5 parts by weight of dimethylformamide Emulsifier: alkylaryl polyglycol ether
as §4
Leaf discs of maize (Zea mays) are sprayed with an active compound preparation of the desired concentration and, after drying, populated with caterpillars of the armyworm (Spodoptera frugiperda).
After 7 days, efficacy in % is determined. 100% means that all the caterpillars have been killed; 0% means that no caterpillars have been killed.

Tetranychus urticae = Tetranychus urticae spray test, OP-resistant (TETRUR); assay type: in vivo; conditions: application rate 100 g/ha; bean leaf discs; after 6 days
Procedure: Tetranychus urticae—Spray Test, OP-Resistant (TETRUR) Solvent: 78.0 parts by weight of acetone • • 1.5 parts by weight of dimethylformamide Emulsifier: alkylaryl polyglycol ether
as §4
Discs of bean leaves (Phaseolus vulgaris) infested by all stages of the greenhouse red spider mite (Tetranychus urticae) are sprayed with an active ingredient formulation of the desired concentration.
After 6 days, efficacy in % is determined. 100% means that all the spider mites have been killed; 0% means that no spider mites have been killed.

[4] = log P by HPLC on reversed-phase column (C18), EEC Directive 79/831 Annex V.A8; assay type: physicochemical; conditions: reversed-phase C18 HPLC column; HPLC, C18, acetonitrile/water with formic acid gradient; read-out: log P
Procedure: ^a) Unless indicated otherwise, the following method was used to determine the log P values and masses: The determination of the given log P values was carried out in accordance with EEC Directive 79/831 Annex V.A8 by HPLC (High Performance Liquid Chromatography) on a reversed-phase column (C18). Agilent 1100 LC system; 50*4.6 Zorbax Eclipse Plus C18 1.8 micron; mobile phase A: acetonitrile (0.1% formic acid); mobile phase B: water (0.09% formic acid); linear gradient from 10% acetonitrile to 95% acetonitrile in 4.25 min, then 95% acetonitrile for a further 1.25 min; oven temperature 55° C.; flow rate: 2.0 ml/min. Mass detection is effected by means of an Agilend MSD system.

chromatographic logP [4]: 3.67
SMILES: Cn1nc(C(F)(F)C(F)(F)F)c(C(F)(F)F)c1-c1cn(-c2ccc(Cl)c(C(=O)NC3CC3)c2)nn1 [Ig-1, 2-chloro-N-cyclopropyl-5-{4-[1-methyl-3-(pentafluoroethyl)-4-(trifluoromethyl)-1H-pyrazol-5-yl]-1H-1,2,3-triazol-1-yl}benzamide]
efficacy (Ctenocephalides felis [1]): 100%
efficacy (Rhipicephalus sanguineus): 100%
efficacy (kill) (Amblyomma hebraeum): 100%
efficacy (laying of fertile eggs) [2]: 100%
efficacy (laying of fertile eggs) (Boophilus microplus): 100%
efficacy (kill) (Ctenocephalides felis [3]): 100%
efficacy (kill) (Lucilia cuprina): 100%
efficacy (kill) (Musca domestica): 100%
efficacy (Phaedon cochleariae): 100%
efficacy (Spodoptera frugiperda): 100%
efficacy (Tetranychus urticae): 100%
